Test results published in patent US7601883B2, “Mammalian sour/acid taste and CSF receptor genes, polypeptides and assays” (The Regents of the University of California, priority 2005, dated 2009).

Assays:
[1] = test system: taste receptor cells of the tongue; experiment: Tastant-induced chorda tympani nerve recordings, wild-type mice; format: in vivo, mouse; settings: wild-type mice (WT); lingual stimulation; normalized to the response to 60 mM AceK
From the text: (§1) To validate this approach as a means of uncovering TRC function, we first generated mice where T1R2-regulatory sequences were used to target DTA expression^25. T1R2 is an essential subunit of the sweet receptor heterodimer (T1R2+3), and the selective ablation of these cells should generate animals with a specific loss of sweet taste^6,9,10,17. To investigate the taste responses of the genetically modified mice, we recorded tastant-induced action potentials from nerves innervating taste receptor cells of the tongue; this physiological assay monitors the activity of the taste system at the periphery, and provides an accurate and reliable measure of taste receptor cell function. […] Next, we engineered animals where the PKD2L1 gene was used to target Cre recombinase into PKD2L1-expressing cells; appropriate expression was confirmed by performing double labeling with Cre and probes specific to PKD2L1-cells, or by crossing them to GFP reporter lines^26. Mice expressing Cre in PKD2L1 cells were crossed to conditional DTA lines, and double-positive progeny were scrutinized both for the specificity and efficiency of killing, as well as the integrity of taste buds.
(§2) Lingual stimulation and recording procedures were performed as previously described^7,9. Neural signals were amplified (10,000×) with a Grass P511 AC amplifier (Astro-Med), digitized with a Digidata 1200B A/D converter (Axon Instruments), and integrated (r.m.s. voltage) with a time constant of 0.5 s. Taste stimuli were presented at a constant flow rate of 4 ml min^−1 for 20 s intervals interspersed by 2 min rinses with artificial saliva^7,9 between presentations. All data analyses used the integrated response over a 25 s period immediately after the application of the stimulus. The mean response to 60 mM AceK was used to normalize responses to each experimental series. Tastants used for nerve recordings were: 10 mM, 60 mM acesulfameK (AceK); 10 mM, 60 mM sodium saccharin (saccharin); 300 mM sucrose; 30 mM mono potassium glutamate+1 mM inosine mono phosphate (Glu); 30 mM L alanine+1 mM inosine mono phosphate (Ala); 10 mM quinine hydrochloride (Qui); 100 μM cycloheximide (Cyx); 10 mM 6-n-propyl 2-thiouracil (PROP); 50 mM, 100 mM sodium chloride (NaCl); 10 mM, 50 mM citric acid; 10 mM, 50 mM tartaric acid; 50 mM, 500 mM acetic acid; pH 2 hydrochloric acid (HCl); 10 mM citric acid pH 2, 4 and 6.
Shown are integrated chorda tympani responses normalized to the response to 60 mM AceK; see herein for details on the ablated lines and concentrations of tastants. […] Wild type, black bars; PKD2L1-DTA, outline bars. The values are means±s.e.m. (n=5) of normalized chorda tympani responses. (c) Quantitation of acid responses of wild type (gray bars) and PKD2L1-DTA animals (outline bars). The values are means±s.e.m. (n=6).

[2] = test system: PKD2L1-expressing TRCs; experiment: Tastant-induced chorda tympani nerve recordings, mice with DTA ablation of PKD2L1-expressing cells; format: in vivo, mouse; settings: PKD2L1-DTA mice (PKD2L1-expressing cells genetically ablated); range of 5 orders magnitude of proton concentrations
From the text: as §1, §2

[Cl-].[Na+] [NaCl, sodium chloride]
neural responses to tastant (integrated chorda tympani responses) [1]: robust neural responses

CC1=CC(=O)NS(=O)(=O)O1 [acesulfameK]
neural responses to tastant (integrated chorda tympani responses) [1]: robust neural responses

CC(=O)O [acetic acid]
nerve responses to acid tastants [2]: completely abolished
neural responses to tastant (integrated chorda tympani responses) [1]: robust neural responses

O=C(O)CC(O)(CC(=O)O)C(=O)O [citric acid]
nerve responses to acid tastants [2]: completely abolished
neural responses to tastant (integrated chorda tympani responses) [1]: robust neural responses

N[C@@H](CCC(=O)O)C(=O)[O-].[K+] [glutamate, mono potassium glutamate]
neural responses to tastant (integrated chorda tympani responses) [1]: robust neural responses

Cl [hydrochloric acid]
nerve responses to acid tastants [2]: completely abolished
neural responses to tastant (integrated chorda tympani responses) [1]: robust neural responses

C=C[C@H]1CN2CC[C@H]1C[C@H]2[C@H](O)c1ccnc2ccc(OC)cc12.Cl [quinine, quinine hydrochloride]
neural responses to tastant (integrated chorda tympani responses) [1]: robust neural responses

O=C1NS(=O)(=O)c2ccccc21.[Na] [saccharin, sodium saccharin]
neural responses to tastant (integrated chorda tympani responses) [1]: robust neural responses

O=C(O)C(O)C(O)C(=O)O (stereo not drawn) [tartaric acid]
nerve responses to acid tastants [2]: completely abolished
